Source: patent US6835842B2, “3-nitroisoxazoles and their use in the protection of materials” (Bayer Aktiengesellschaft, priority 2000, dated 2004)
Converted amounts (≈) assume the structure as drawn.

Tests used:
Type in all cases: cell-based
Bacillus subtilis = assay: Use Example A: minimum inhibitory concentration against bacteria on Landy agar; details: 3 days at 28° C., 60-70% relative atmospheric humidity
Method: (§1) The MIC is determined after 3 days of storage at 28° C. and 60-70% relative atmospheric humidity.

Pseudomonas aeroginosa = assay: as above; details: 3 days at 28° C., 60-70% relative atmospheric humidity
Method: as §1

Aspergillus niger = assay: Use Example B: minimum inhibitory concentration against fungi on malt extract agar; details: 2 weeks at 28° C., 60-70% relative atmospheric humidity
Method: (§2) The MIC is determined after 2 weeks of storage at 28° C. and 60-70% relative atmospheric humidity.

Chaetomium globusum = assay: as above; details: 2 weeks at 28° C., 60-70% relative atmospheric humidity
Method: as §2

Penicillium brevicaule = assay: as above; details: 2 weeks at 28° C., 60-70% relative atmospheric humidity
Method: as §2

| Structure (SMILES) | Minimum inhibitory concentration Bacillus subtilis (Bacillus subtilis) [ppm] | Minimum inhibitory concentration Pseudomonas aeroginosa (Pseudomonas aeroginosa) [ppm] | Minimum inhibitory concentration Aspergillus niger (Aspergillus niger) [ppm] | Minimum inhibitory concentration Chaetomium globusum (Chaetomium globusum) [ppm] | Minimum inhibitory concentration Penicillium brevicaule (Penicillium brevicaule) [ppm] | MIC (Bacillus subtilis; Bacillus subtilis, 72 h) [µg/mL] | MIC (Pseudomonas aeroginosa; Pseudomonas, 72 h) [µg/mL] | MIC (Aspergillus niger; Aspergillus niger, 336 h) [µg/mL] | MIC (Chaetomium globusum; Chaetomium, 336 h) [µg/mL] | MIC (Penicillium brevicaule; Penicillium, 336 h) [µg/mL] |
| --- | --- | --- | --- | --- | --- | --- | --- | --- | --- | --- |
| CCCCc1cc([N+](=O)[O-])no1 [Example 4] | <40 | 200 | >400 | 400 | 400 | – | – | – | – | – |
| CCOc1ccc(-c2cc([N+](=O)[O-])no2)cc1Cl [Example 5] | <40 | >400 | 400 | 100 | 200 | – | – | – | – | – |
| O=[N+]([O-])c1cc(-c2ccccc2)on1 [Example 2] | <40 | >400 | 400 | 200 | 200 | – | – | – | – | – |
| Cc1cc([N+](=O)[O-])no1 [Example 3] | <40 | 200 | 200 | 200 | 200 | – | – | – | – | – |
| O=[N+]([O-])c1ccon1 [Example 1, 3-Nitroisoxazole] | – | – | – | – | – | < 40 | 100 (≈ 877 µM) | 100 (≈ 877 µM) | 200 (≈ 1750 µM) | 100 (≈ 877 µM) |
